Laboratory results: US20130165464A1, “HETEROARYLS AND USES THEREOF” (MILLENNIUM PHARMACEUTICALS, INC., priority 2011, published 2013)

Molecular target: T1, VPS34 (Homo sapiens, UniProt Q8NEB9)
T1 construct: GST (N); host or cells: SF9 insect cells (baculovirus)
Test: Human VPS34 enzyme assay (Adapta TR-FRET)
Assay type: biochemical
Conditions: for inhibition at 1.11 µM: 1 h, at a 1.11 μM concentration, read-out: VPS34 Percent Inhibition
Description: VPS34 (accession number GB:BCO33004) was cloned into pDEST20-Thombin as N-terminal GST tagged fusion proteins using the Gateway system (Invitrogen, catalog#11804-013). The sequences were verified before recombinant protein expression using the Baculovirus Expression System with Gateway® Technology.
For expression VPS34 was infected at 1MOI in SF9 cells and harvested 72 hours post infection.
For purification, VPS34 is purified by Glutathione Sepharose 4 Fast Flow (GE Healthcare #17-5132-03) followed by HiTrap Q (GE Healthcare #17-1153-01).
Human VPS34 Enzyme Assay Method
100 nL compounds in DMSO are added to wells of a 384 well microtitre plate (Greiner 780076). At room temperature: 5 ul VPS34 reaction buffer (Invitrogen Assay Buffer Q (diluted 1 in 5 with nanopure water) plus 2 mM DTT and 2 mM MnCl2) containing ATP (20 uM, Promega) and 200 uM PI-PS substrate (Invitrogen PV5122) is added followed immediately by 5 ul VPS34 reaction buffer (as above) containing VPS34 (5 nM, Millennium Protein Sciences Group) and the mixture is incubated with shaking at room temperature for 1 hour. Then 5 ul VPS34 stop-detect mix (as per Invitrogen Adapta Assay kit (PV5009) instructions (contains kinase quench buffer, TR-FRET buffer, Adapta Eu anti-ADP antibody and Alexa Fluor 647 ADP tracer)) is added to quench the reaction. The plates are then incubated for 30 minutes at room temperature with shaking and then read on a BMG PheraStar Plus reader.
For the assay methods described above, test compound percent inhibition, at various concentrations, is calculated relative to control (DMSO and EDTA) treated samples. Compound concentration versus percent inhibition curves are fitted to generate IC50 values. One skilled in the art will appreciate that the values generated either as percentage inhibition at a single concentration or IC50 values are subject to experimental variation.

T1 sequence (Q8NEB9 whole entry): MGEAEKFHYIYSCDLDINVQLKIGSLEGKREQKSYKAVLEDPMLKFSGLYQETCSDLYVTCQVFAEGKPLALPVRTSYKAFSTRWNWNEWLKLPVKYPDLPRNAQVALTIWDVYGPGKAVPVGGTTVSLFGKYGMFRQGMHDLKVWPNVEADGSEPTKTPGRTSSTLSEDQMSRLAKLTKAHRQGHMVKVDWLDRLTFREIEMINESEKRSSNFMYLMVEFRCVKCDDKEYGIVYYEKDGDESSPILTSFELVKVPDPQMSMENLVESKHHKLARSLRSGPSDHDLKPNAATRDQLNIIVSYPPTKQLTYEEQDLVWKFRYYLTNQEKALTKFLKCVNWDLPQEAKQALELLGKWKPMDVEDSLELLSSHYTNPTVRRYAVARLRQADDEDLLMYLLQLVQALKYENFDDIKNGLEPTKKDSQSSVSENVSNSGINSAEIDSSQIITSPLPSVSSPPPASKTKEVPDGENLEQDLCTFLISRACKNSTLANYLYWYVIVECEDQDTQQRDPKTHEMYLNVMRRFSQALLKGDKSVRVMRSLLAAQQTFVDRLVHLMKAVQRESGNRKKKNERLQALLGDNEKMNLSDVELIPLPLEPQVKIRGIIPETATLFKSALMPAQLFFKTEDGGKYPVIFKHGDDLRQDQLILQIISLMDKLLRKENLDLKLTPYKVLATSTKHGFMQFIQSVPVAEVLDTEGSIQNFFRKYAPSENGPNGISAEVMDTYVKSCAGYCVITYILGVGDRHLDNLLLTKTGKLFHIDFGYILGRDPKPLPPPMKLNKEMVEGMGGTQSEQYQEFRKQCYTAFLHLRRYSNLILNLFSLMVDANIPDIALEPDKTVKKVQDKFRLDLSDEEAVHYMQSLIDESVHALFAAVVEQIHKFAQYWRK

IC50 [nM] | inhibition at 1.11 µM [%] | Structure (SMILES)
150 to 1000 | 71 | Cc1cnc(NC(=O)OC2CCCCC2)cc1-n1cc(C(N)=O)c(-c2ccccc2Cl)c1 [I-72, cyclohexyl {4-[3-carbamoyl-4-(2-chlorophenyl)-1H-pyrrol-1-yl]-5-methylpyridin-2-yl}carbamate]
150 to 1000 | 78 | Cc1cnc(NC(=O)C(C)C)cc1-n1cc(-c2nc[nH]n2)c(-c2ccccc2Cl)c1 [I-26, N-{4-[3-(2-chlorophenyl)-4-(1H-1,2,4-triazol-3-yl)-1H-pyrrol-1-yl]-5-methylpyridin-2-yl}-2-methylpropanamide]
1000 to 5000 | 44 | O=C(O)c1cn(-c2ccnc(NCCc3ccc(O)cc3)n2)nc1-c1ccccc1Cl [I-29, 3-(2-chlorophenyl)-1-(2-{[2-(4-hydroxyphenyl)ethyl]amino}pyrimidin-4-yl)-1H-pyrazole-4-carboxylic acid]
1000 to 5000 | 42 | Cc1cnc(NC(=O)C(C)C)cc1-n1cc(C(N)=O)c(-c2ccccc2Cl)c1 [I-33, 4-(2-chlorophenyl)-1-[2-(isobutyrylamino)-5-methylpyridin-4-yl]-1H-pyrrole-3-carboxamide]
150 to 1000 | 56 | COc1ccccc1-c1nn(-c2cc(NC(C)=O)ncc2C)cc1-c1nc[nH]n1 [I-49, N-{4-[3-(2-methoxyphenyl)-4-(1H-1,2,4-triazol-3-yl)-1H-pyrazol-1-yl]-5-methylpyridin-2-yl}acetamide]
< 50 | > 99 | O=C(Nc1cc(-n2cc(-c3nc[nH]n3)c(-c3ccccc3Cl)n2)ccn1)C1CC1 [I-23, N-{4-[3-(2-chlorophenyl)-4-(1H-1,2,4-triazol-3-yl)-1H-pyrazol-1-yl]pyridin-2-yl}cyclopropanecarboxamide]
< 50 | > 99 | COc1ccc(-c2nn(-c3cc(NC(C)=O)ncc3C)cc2-c2nc[nH]n2)c(Cl)c1 [I-35, N-{4-[3-(2-chloro-4-methoxyphenyl)-4-(1H-1,2,4-triazol-3-yl)-1H-pyrazol-1-yl]-5-methylpyridin-2-yl}acetamide]
– | > 99 | CC(=O)Nc1cc(-n2cc(-c3nc[nH]n3)c(-c3ccccc3S(C)(=O)=O)c2)ccn1 [I-38, N-(4-{3-[2-(methylsulfonyl)phenyl]-4-(1H-1,2,4-triazol-3-yl)-1H-pyrrol-1-yl}pyridin-2-yl)acetamide]

The next lines start with the compound.

Structure (SMILES) | IC50 [nM] | inhibition at 1.11 µM [%]
COC(=O)Nc1cc(-n2cc(-c3nc[nH]n3)c(-c3ccccc3Cl)n2)ccn1 [I-17, methyl {4-[3-(2-chlorophenyl)-4-(1H-1,2,4-triazol-3-yl)-1H-pyrazol-1-yl]pyridin-2-yl}carbamate] | < 50 | > 99
CC(=O)Nc1cc(-n2cc(-c3nnc[nH]3)c(-c3ccccc3Cl)c2)ccn1 [I-22, N-{4-[3-(2-chlorophenyl)-4-(1H-1,2,4-triazol-3-yl)-1H-pyrrol-1-yl]pyridin-2-yl}acetamide] | < 50 | > 99
CC(=O)Nc1cc(-n2cc(-c3ccccc3Cl)c(-c3nnc[nH]3)n2)ccn1 [I-1, N-{4-[4-(2-chlorophenyl)-3-(1H-1,2,4-triazol-3-yl)-1H-pyrazol-1-yl]pyridin-2-yl}acetamide] | 150 to 1000 | 98
CC(=O)Nc1cc(-n2cc(-c3nc[nH]n3)c(-c3ccccc3Cl)n2)ccn1 [I-12, N-{4-[3-(2-chlorophenyl)-4-(1H-1,2,4-triazol-3-yl)-1H-pyrazol-1-yl]pyridin-2-yl}acetamide] | < 50 | > 99
CC(=O)Nc1cc(-n2cc(C(N)=O)c(-c3ccc(Cl)cc3Cl)n2)ccn1 [I-13, 1-(2-acetamidopyridin-4-yl)-3-(2,4-dichlorophenyl)-1H-pyrazole-4-carboxamide] | – | > 99
NC(=O)c1cn(-c2ccnc3[nH]ccc23)nc1-c1ccccc1Cl [I-7, 3-(2-chlorophenyl)-1-(1H-pyrrolo[2,3-b]pyridin-4-yl)-1H-pyrazole-4-carboxamide] | 150 to 1000 | 88
